# Assay results reported in US20170057955A1, “Pyridopyrimidinone Compounds for Modulating the Catalytic Activity of Histone Lysine Demethylases (KDMs)” (Dong-A Socio Holdings Co., Ltd., priority 2015, published 2017).
# Biological target: T1, Recombinant human JARID1B/KDM5B (Homo sapiens, UniProt Q9UGL1)
# T1 construct: purchased Active Motif 31432; host or cells: Sf9 insect cells
# Assay: LANCE Ultra TR-FRET JARID1B (KDM5B) demethylase inhibition assay
# Type: biochemical
# Details: 0.1 uM of test-compounds, FLAG-JARID1B, 500 nM biotinylated H3K4me3 peptide substrate, 30 min at room temperature
# Method in brief: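 FLAG-tagged JARID1B from Sf9 cells, pre-incubated 5 min with 0.1 uM compound (1% DMSO), then 500 nM biotinylated H3K4me3 peptide, 500 uM 2-OG, 25 uM Fe(II), 2 mM ascorbate in pH 7.5 Hepes buffer. After 30 min at room temperature, H3K4me2/1 product detected by TR-FRET (665/590 nm ratio).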
# T1 sequence (Q9UGL1 whole entry): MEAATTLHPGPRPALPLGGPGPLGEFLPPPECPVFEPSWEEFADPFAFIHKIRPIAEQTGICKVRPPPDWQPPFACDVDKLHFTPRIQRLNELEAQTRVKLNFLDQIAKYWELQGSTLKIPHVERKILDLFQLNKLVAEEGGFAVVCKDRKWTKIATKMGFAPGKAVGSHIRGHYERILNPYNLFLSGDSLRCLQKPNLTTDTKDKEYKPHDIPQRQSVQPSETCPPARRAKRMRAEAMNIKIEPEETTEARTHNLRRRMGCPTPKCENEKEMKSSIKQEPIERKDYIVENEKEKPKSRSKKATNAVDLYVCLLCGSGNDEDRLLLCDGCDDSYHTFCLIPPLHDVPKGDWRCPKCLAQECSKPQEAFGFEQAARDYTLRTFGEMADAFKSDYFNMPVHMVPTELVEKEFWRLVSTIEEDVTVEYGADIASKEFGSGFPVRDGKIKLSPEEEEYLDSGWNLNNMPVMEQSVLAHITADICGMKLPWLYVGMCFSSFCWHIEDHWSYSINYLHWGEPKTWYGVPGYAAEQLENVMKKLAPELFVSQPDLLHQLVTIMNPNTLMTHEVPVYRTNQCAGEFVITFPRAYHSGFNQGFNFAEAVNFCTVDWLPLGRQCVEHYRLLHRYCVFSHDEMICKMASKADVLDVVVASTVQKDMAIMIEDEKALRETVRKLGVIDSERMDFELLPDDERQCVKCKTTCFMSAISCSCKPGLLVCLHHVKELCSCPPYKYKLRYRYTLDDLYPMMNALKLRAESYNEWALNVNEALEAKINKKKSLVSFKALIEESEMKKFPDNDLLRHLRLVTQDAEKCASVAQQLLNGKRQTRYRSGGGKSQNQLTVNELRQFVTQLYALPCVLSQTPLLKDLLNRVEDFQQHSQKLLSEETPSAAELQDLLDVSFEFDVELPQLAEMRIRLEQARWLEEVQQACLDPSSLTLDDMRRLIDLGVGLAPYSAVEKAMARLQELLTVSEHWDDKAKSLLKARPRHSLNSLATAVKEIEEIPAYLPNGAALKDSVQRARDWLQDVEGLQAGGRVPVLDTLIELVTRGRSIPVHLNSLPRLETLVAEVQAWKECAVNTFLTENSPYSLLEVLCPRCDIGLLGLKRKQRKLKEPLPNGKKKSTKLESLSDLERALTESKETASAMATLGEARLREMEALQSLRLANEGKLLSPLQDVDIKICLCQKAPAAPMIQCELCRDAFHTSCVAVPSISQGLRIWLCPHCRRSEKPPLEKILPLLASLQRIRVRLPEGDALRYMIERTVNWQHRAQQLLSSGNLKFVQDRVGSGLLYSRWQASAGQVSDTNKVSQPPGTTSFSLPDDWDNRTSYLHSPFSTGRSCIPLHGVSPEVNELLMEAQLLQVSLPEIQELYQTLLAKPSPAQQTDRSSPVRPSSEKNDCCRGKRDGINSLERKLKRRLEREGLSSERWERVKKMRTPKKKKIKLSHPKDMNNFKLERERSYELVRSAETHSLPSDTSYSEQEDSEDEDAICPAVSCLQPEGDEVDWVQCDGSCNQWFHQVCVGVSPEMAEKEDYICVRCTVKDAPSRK
row,SMILES,inhibition at 0.1 µM [%]
1,"CN1CCC(Nc2nc(-c3nccc4c(=O)[nH]c(CCc5ccccc5)nc34)cs2)CC1 [Compound 163, 8-(2-((1-methylpiperidin-4-yl)amino)thiazol-4-yl)-2-phenethylpyrido[3,4-d]pyrimidin-4(3H)-one]",20 to 50
2,"O=c1[nH]c(CCc2ccccc2)nc2c(-c3csc(NC4CCN(Cc5ccccc5)CC4)n3)nccc12 [Compound 164, 8-(2-((1-benzylpiperidin-4-yl)amino)thiazol-4-yl)-2-phenethylpyrido[3,4-d]pyrimidin-4(3H)-one]",≥ 50
3,"Nc1nc(-c2nccc3c(=O)[nH]c(CCc4ccc(F)cc4)nc23)cs1 [Compound 165, 8-(2-aminothiazol-4-yl)-2-(4-fluorophenethyl)pyrido[3,4-d]pyrimidin-4(3H)-one]",20 to 50

# Now from value to compound:
row,inhibition at 0.1 µM [%],SMILES
1,20 to 50,"Nc1nc(-c2nccc3c(=O)[nH]c(CCCc4ccccc4)nc23)cs1 [Compound 166, 8-(2-aminothiazol-4-yl)-2-(3-phenylpropyl)pyrido[3,4-d]pyrimidin-4(3H)-one]"
2,20 to 50,"O=c1[nH]c(-c2cc3ccccc3o2)nc2c(-c3csc(NCCO)n3)nccc12 [Compound 167, 2-(benzofuran-2-yl)-8-(2-((2-hydroxyethyl)amino)thiazol-4-yl)pyrido[3,4-d]pyrimidin-4(3H)-one]"
3,< 20,"C[C@H](O)CNc1nc(-c2nccc3c(=O)[nH]c(-c4cc5ccccc5o4)nc23)cs1 [Compound 168, (S)-2-(benzofuran-2-yl)-8-(2-((2-hydroxypropyl)amino)thiazol-4-yl)pyrido[3,4-d]pyrimidin-4(3H)-one]"
